In US20260223850A1, “SUBSTITUTED PYRROLIDONE COMPOUND, PREPARATION METHOD THEREFOR, COMPOSITION AND APPLICATION THEREOF” (QINGDAO KINGAGROOT CHEMICAL COMPOUND CO., LTD., priority 2023, published 2026):

Legend:
Format in all cases: in vivo
Echinochloa crusgalli = experiment: Seedling stage sealing experiment for water-seeding; details: 120 g a.i./ha, 15 days, fresh weight control rate
Digitaria sanguinalis = experiment: as above; details: 120 g a.i./ha, 15 days, fresh weight control rate
In short: (§1)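 Read-out: 0–9 damage level from fresh-weight control rate (9 = completely dead, 1 = under 10%, 0 = no effect), averaged over triplicates, taken 15 days after spraying. Doses were 120, 60, 30 and 15 g a.i./ha, acetone/water solution, spray tower.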

Leptochloa chinensis = experiment: as above; details: 120 g a.i./ha, 15 days, fresh weight control rate
In short: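 Seeds sown in soil-filled bowls kept moist in water-filled boxes; compound in acetone diluted with water and spray-applied at 120, 60, 30 and 15 g a.i./ha, triplicate. After 15 days in greenhouse, fresh-weight growth control scored on a 0–9 scale (9 = dead, 0 = no effect), averaged.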

Echinochloa phyllopogon = experiment: as above; details: 120 g a.i./ha, 15 days, fresh weight control rate
In short: as §1

Huaidao (rice cultivar) = experiment: Seedling stage sealing experiment for water-seeding (crop safety); details: 120 g a.i./ha, 15 days, fresh weight control rate; for Huaidao (rice cultivar) plant damage level (growth control rate): spray, seedling stage sealing for water-seeding; for Huaidao (rice cultivar) plant damage level: seedling stage sealing
In short: as §1

[1] = spray, seedling stage sealing for water-seeding

Compound | Echinochloa crusgalli activity level (growth control rate) (Echinochloa crusgalli; seedling stage sealing) | Digitaria sanguinalis activity level (growth control rate) (Digitaria sanguinalis; seedling stage sealing) | Leptochloa chinensis activity level (growth control rate) (Leptochloa chinensis) | Echinochloa phyllopogon activity level (growth control rate) (Echinochloa phyllopogon; seedling stage sealing) | Huaidao (rice cultivar) plant damage level (growth control rate) (Huaidao (rice cultivar)) | Echinochloa crusgalli activity level (growth control rate) (Echinochloa crusgalli; [1]) | Echinochloa phyllopogon activity level (growth control rate) (Echinochloa phyllopogon; [1]) | Digitaria sanguinalis activity level (growth control rate) (Digitaria sanguinalis; [1]) | Huaidao (rice cultivar) plant damage level (Huaidao (rice cultivar))
C=CCn1ncc(NC(=O)[C@H]2C(=O)N(C)C[C@@H]2c2cccc(C(F)(F)F)c2)c1Cl [162′] | 9 | 8 (Level 8: growth control rate greater than or equal to 90% and less than 100%) | 9 |  |  |  |  |  | 
CN1CC(c2cc(F)c(F)c(F)c2)C(C(=O)Nc2cnn(C)c2Cl)C1=O (stereo not shown) [Compound 114] | 9 | 9 | 9 | 6 (Level 6: growth control rate greater than or equal to 70% and less than 80%) |  |  |  |  | 
Cc1cc(C)cc([C@H]2CN(C)C(=O)[C@@H]2C(=O)Nc2cnn(C)c2C(F)F)c1 [546′] |  |  |  |  | 0 | 9 | 9 | 9 | 
COc1cccc(C2CN(C)C(=O)C2C(=O)Nc2cnn(C)c2Cl)c1 (stereo not shown) [Compound 28] | 9 | 9 |  | 9 |  |  |  |  | 0
Cc1cc(C)cc([C@H]2CN(C)C(=O)[C@@H]2C(=O)Nc2cnn(C3CC3)c2C(F)(F)F)c1 [548′] |  |  |  |  | 0 | 9 | 6 (Level 6: growth control rate greater than or equal to 70% and less than 80%) | 9 | 
Cc1cccc([C@H]2CN(C)C(=O)[C@@H]2C(=O)Nc2cnn(C)c2C2CC2)c1 [139′] | 9 | 7 (Level 7: growth control rate greater than or equal to 80% and less than 90%) | 9 |  |  |  |  |  | 
Cc1cccc([C@H]2CN(C)C(=O)[C@@H]2C(=O)Nc2cnn(C)c2S(C)(=O)=O)c1 [531′] |  |  |  |  | 0 | 9 | 9 | 9 | 
Cc1cccc([C@H]2CN(C)C(=O)[C@@H]2C(=O)Nc2cnn(C3CC3)c2C(F)(F)F)c1 [527′] |  |  |  |  | 0 | 9 | 6 (Level 6: growth control rate greater than or equal to 70% and less than 80%) | 9 | 
Cc1cc(C)cc([C@H]2CN(C)C(=O)[C@@H]2C(=O)Nc2cnn(C(C)C)c2C(F)(F)F)c1 [547′] |  |  |  |  | 0 | 9 | 9 | 9 | 
CN1CC(c2cccc(C(F)(F)F)c2)C(C(=O)Nc2cnn(C)c2Br)C1=O (stereo not shown) [Compound 120] | 9 | 9 |  | 9 |  |  |  |  | 0
CCn1ncc(NC(=O)[C@H]2C(=O)N(C)C[C@@H]2c2cccc(C(F)(F)F)c2)c1C(F)(F)F [535′] |  |  |  |  | 0 | 9 | 9 | 9 | 
CC(C)Oc1cccc(C2CN(C)C(=O)C2C(=O)Nc2cnn(C)c2Cl)c1 (stereo not shown) [Compound 29] | 9 | 9 |  | 9 |  |  |  |  | 0
CN1CC(c2cccc(C(F)(F)F)c2)C(C(=O)Nc2cnn(C)c2)C1=O (stereo not shown) [Compound 156] | 6 (Level 6: growth control rate greater than or equal to 70% and less than 80%) | 7 (Level 7: growth control rate greater than or equal to 80% and less than 90%) |  | 6 (Level 6: growth control rate greater than or equal to 70% and less than 80%) |  |  |  |  | 0
CN1C[C@H](c2cc(F)cc(Cl)c2)[C@@H](C(=O)Nc2cnn(C)c2C2CC2)C1=O [555′] |  |  |  |  | 0 | 9 | 9 | 9 | 
CN1C[C@H](c2cc(F)cc(Cl)c2)[C@@H](C(=O)Nc2cnn(C(F)F)c2Cl)C1=O [554′] |  |  |  |  | 0 | 9 | 9 | 9 | 
CN1C[C@H](c2cc(F)cc(C(F)F)c2)[C@@H](C(=O)Nc2cnn(C)c2Cl)C1=O [556′] |  |  |  |  | 2 (Level 2: growth control rate greater than or equal to 10% and less than 20%) | 9 | 9 | 9 | 
CCn1ncc(NC(=O)[C@H]2C(=O)N(C)C[C@@H]2c2cccc(C)c2)c1C(F)(F)F [525′] |  |  |  |  | 2 (Level 2: growth control rate greater than or equal to 10% and less than 20%) | 9 | 9 | 9 | 
Cc1cccc([C@H]2CN(C)C(=O)[C@@H]2C(=O)Nc2cnn(C(C)C)c2C(F)(F)F)c1 [526′] |  |  |  |  | 0 | 9 | 6 (Level 6: growth control rate greater than or equal to 70% and less than 80%) | 9 | 
Cc1cccc([C@H]2CN(C)C(=O)[C@@H]2C(=O)Nc2cnn(C)c2C(F)F)c1 [524′] |  |  |  |  | 2 (Level 2: growth control rate greater than or equal to 10% and less than 20%) | 9 | 9 | 9 | 
CCn1ncc(NC(=O)[C@H]2C(=O)N(C)C[C@@H]2c2cccc(C(F)(F)F)c2)c1F [533′] |  |  |  |  | 0 | 9 | 9 | 9 | 
CN1C[C@H](c2cc(F)cc(F)c2)[C@@H](C(=O)Nc2cnn(C)c2Cl)C1=O [115′] | 9 | 8 (Level 8: growth control rate greater than or equal to 90% and less than 100%) | 8 (Level 8: growth control rate greater than or equal to 90% and less than 100%) |  |  |  |  |  | 
COCn1ncc(NC(=O)[C@H]2C(=O)N(C)C[C@@H]2c2cccc(C(F)(F)F)c2)c1C1CC1 [540′] |  |  |  |  | 0 | 9 | 9 | 9 | 
CN1CC(c2cccc(C(F)(F)F)c2)C(C(=O)Nc2cnn(C)c2F)C1=O (stereo not shown) [Compound 119] | 9 | 9 |  | 9 |  |  |  |  | 0
Cc1cc([C@H]2CN(C)C(=O)[C@@H]2C(=O)Nc2cnn(C)c2C2CC2)cc(C(F)(F)F)c1 [561′] |  |  |  |  | 1 (Level 1: growth control rate less than 10%) | 9 | 9 | 9 | 
CO/N=C/c1c(NC(=O)[C@H]2C(=O)N(C)C[C@@H]2c2cccc(C)c2)cnn1C [532′] |  |  |  |  | 0 | 9 | 6 (Level 6: growth control rate greater than or equal to 70% and less than 80%) | 9 | 
CN1CC(c2ccc(Cl)s2)C(C(=O)Nc2cnn(C)c2Cl)C1=O (stereo not shown) [Compound 339] | 9 | 7 (Level 7: growth control rate greater than or equal to 80% and less than 90%) | 6 (Level 6: growth control rate greater than or equal to 70% and less than 80%) |  |  |  |  |  | 
CCn1ncc(NC(=O)[C@H]2C(=O)N(C)C[C@@H]2c2cccc(C)c2)c1F [523′] |  |  |  |  | 0 | 9 | 6 (Level 6: growth control rate greater than or equal to 70% and less than 80%) | 9 | 
Cc1ccc([C@H]2CN(C)C(=O)[C@@H]2C(=O)Nc2cnn(C)c2Cl)cc1F [313′] | 9 | 9 | 9 |  |  |  |  |  | 
CCCCOc1cccc(C2CN(C)C(=O)C2C(=O)Nc2cnn(C)c2Cl)c1 (stereo not shown) [Compound 221] |  | 9 | 9 |  |  |  |  |  | 
